Experimental data taken from patent US20020192201A1, “Crohn's disease treatment methods” (priority 1998, published 2002).
Read-outs that look alike come from different tables or passages of the source.

Experiments:
[1] = system: M. para. isolated from resected tissue of CD patients; assay: in vitro test of seven antituberculosis drugs against M. para. using the Bactec system; format: cell-based, Mycobacterium paratuberculosis; conditions: for MIC50 (50% M. para. cells inhibited or killed) / MIC99.9 (99.9% M. para. cells inhibited or killed): M. para. from resected tissue of CD patients
[2] = system: MAP-positive and MAP-negative Crohn's disease patients (ELISA); assay: comparison of age-matched MAP-positive and MAP-negative patients at 1 year (CDAI); format: in vivo, human
Excerpt: Another study was undertaken to compare age-matched MAP-positive and -negative patients utilizing ELISA analysis forserum antibodies to MAP. 10 MAP-positive and 10 MAP-negative patients were compared at 1 year, utilizing the CDAI score as a primary endpoint. The elimination of corticosteroids and the need for immunotherapy were considered secondary endpoints. […] Steroids were eliminated in 8 of 10 patients, with 2 patients requiring low-dose steroids. In the MAP-negative group at 1 year, 6 of 10 patients were in complete remission, with an entry CDAI score of 308 and an exit score of 179. Of the responsive patients, 3 of 6 required additional immunotherapy, and 3 remained on antibiotics alone.

Row | Compound | Status (resistant/sensitive) ([1]; Bactec system) | MIC50 (50% M. para. cells inhibited or killed) ([1]; Bactec system) | MIC99.9 (99.9% M. para. cells inhibited or killed) ([1]; Bactec system) | Status (resistant/sensitive) [1] | outcome in patients unresponsive to antibiotics [2]
1 | NNC(=O)c1ccncc1 [INH, isoniazid] | R | >20 µg/mL | >20 µg/mL | – | –
2 | [H]/N=C(/N)N[C@H]1[C@H](O)[C@@H](O)[C@H](O[C@@H]2O[C@@H](C)[C@](O)(C=O)[C@H]2O[C@@H]2O[C@@H](CO)[C@H](O)[C@@H](O)[C@@H]2NC)[C@@H](N/C(N)=N\[H])[C@@H]1O [ST, streptomycin] | R | >0.4 µg/mL | >3.0 µg/mL | – | –
3 | CC[C@@H](CO)NCCN[C@@H](CC)CO [EMB, ethambutol] | S | <0.5 µg/mL | <3.0 µg/mL | – | –
4 | CC[C@H]1OC(=O)[C@H](C)[C@@H](O[C@H]2C[C@@](C)(OC)[C@@H](O)[C@H](C)O2)[C@H](C)[C@@H](O[C@@H]2O[C@H](C)C[C@H](N(C)C)[C@H]2O)[C@](C)(OC)C[C@@H](C)C(=O)[C@H](C)[C@@H](O)[C@]1(C)O [CLR, clarithromycin] | – | <0.25 µg/mL | <1.25 µg/mL | S | –
5 | NC[C@H]1O[C@H](O[C@H]2[C@H](O)[C@@H](O[C@H]3O[C@H](CO)[C@@H](O)[C@H](N)[C@H]3O)[C@H](N)C[C@@H]2N)[C@H](O)[C@@H](O)[C@@H]1O [KM, kanamycin] | R | <1.3 µg/mL | <3.0 µg/mL | – | –
6 | CO[C@H]1/C=C/O[C@@]2(C)Oc3c(C)c(O)c4c(O)c(c(/C=N/N5CCN(C)CC5)c(O)c4c3C2=O)NC(=O)/C(C)=C\C=C\[C@H](C)[C@H](O)[C@@H](C)[C@@H](O)[C@@H](C)[C@H](OC(C)=O)[C@@H]1C [RIF, Rifampicin] | R | >1.0 µg/mL | >2.6 µg/mL | – | –
7 | NC(=O)c1cnccn1 [PZA, pyrazinamide] | R | >20 µg/mL | >20 µg/mL | – | –
8 | infliximab | – | – | – | – | induction of remission in all patients
